Data taken from patent publication EP1005446B1, “N-AROYLPHENYLALANINE DERIVATIVES” (priority 1997, dated 1999).

Molecular target: T1, VLA-4 (α4β1 integrin) (Homo sapiens, UniProt P05556+P13612)
T1 construct: followed by 10 µl of Ramos cell-derived VLA-4; endogenous in cells; host or cells: Ramos cells (VLA-4 preparation derived from the cells)
Test: VLA-4 / VCAM-1 Screening Assay (solid-phase, dual antibody ELISA)
Details: inhibition of binding of Ramos cell-derived VLA-4 to immobilized recombinant human VCAM-1
Protocol: VLA-4 / VCAM-1 Screening Assay
VLA-4 antagonist activity, defined as ability to compete for binding to immobilized VCAM-1, was quantitated using a solid-phase, dual antibody ELISA. VLA-4 (α4β1 integrin) bound to VCAM-1 was detected by a complex of anti-integrin β1 antibody: HRP-conjugated anti-mouse IgG: chromogenic substrate (K-Blue). Initially, this entailed coating 96 well plates (Nunc Maxisorp) with recombinant human VCAM-1 (0.4 µg in 100 µl PBS), sealing each plate and then allowing the plates to stand at 4°C for ^~18 hr.

T1 sequence (P13612 34-1032): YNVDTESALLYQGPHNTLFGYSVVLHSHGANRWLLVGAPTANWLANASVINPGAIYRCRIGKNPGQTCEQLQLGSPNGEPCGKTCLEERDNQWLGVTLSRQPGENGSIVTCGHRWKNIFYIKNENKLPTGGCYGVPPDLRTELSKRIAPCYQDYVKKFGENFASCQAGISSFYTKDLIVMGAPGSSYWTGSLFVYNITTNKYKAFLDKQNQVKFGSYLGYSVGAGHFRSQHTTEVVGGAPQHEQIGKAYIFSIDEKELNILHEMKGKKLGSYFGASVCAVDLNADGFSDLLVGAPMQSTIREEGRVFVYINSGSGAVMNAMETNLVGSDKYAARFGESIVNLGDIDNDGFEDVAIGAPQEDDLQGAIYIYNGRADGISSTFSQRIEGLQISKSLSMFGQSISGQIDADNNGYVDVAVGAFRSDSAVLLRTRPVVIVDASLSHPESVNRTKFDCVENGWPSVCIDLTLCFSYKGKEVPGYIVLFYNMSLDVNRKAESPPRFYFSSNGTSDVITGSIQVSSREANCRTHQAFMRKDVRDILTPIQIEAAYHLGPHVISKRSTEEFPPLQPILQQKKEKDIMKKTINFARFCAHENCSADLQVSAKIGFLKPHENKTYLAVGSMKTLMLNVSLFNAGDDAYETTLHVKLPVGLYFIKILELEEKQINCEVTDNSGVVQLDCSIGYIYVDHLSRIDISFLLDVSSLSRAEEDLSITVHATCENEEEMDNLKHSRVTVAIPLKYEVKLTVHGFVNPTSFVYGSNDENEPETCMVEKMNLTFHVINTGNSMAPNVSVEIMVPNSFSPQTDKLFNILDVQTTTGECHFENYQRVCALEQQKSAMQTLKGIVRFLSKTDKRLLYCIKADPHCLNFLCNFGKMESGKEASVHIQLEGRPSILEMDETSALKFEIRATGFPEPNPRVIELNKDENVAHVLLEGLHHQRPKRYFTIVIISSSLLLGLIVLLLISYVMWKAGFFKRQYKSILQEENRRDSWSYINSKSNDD
T1 sequence (P05556 21-798): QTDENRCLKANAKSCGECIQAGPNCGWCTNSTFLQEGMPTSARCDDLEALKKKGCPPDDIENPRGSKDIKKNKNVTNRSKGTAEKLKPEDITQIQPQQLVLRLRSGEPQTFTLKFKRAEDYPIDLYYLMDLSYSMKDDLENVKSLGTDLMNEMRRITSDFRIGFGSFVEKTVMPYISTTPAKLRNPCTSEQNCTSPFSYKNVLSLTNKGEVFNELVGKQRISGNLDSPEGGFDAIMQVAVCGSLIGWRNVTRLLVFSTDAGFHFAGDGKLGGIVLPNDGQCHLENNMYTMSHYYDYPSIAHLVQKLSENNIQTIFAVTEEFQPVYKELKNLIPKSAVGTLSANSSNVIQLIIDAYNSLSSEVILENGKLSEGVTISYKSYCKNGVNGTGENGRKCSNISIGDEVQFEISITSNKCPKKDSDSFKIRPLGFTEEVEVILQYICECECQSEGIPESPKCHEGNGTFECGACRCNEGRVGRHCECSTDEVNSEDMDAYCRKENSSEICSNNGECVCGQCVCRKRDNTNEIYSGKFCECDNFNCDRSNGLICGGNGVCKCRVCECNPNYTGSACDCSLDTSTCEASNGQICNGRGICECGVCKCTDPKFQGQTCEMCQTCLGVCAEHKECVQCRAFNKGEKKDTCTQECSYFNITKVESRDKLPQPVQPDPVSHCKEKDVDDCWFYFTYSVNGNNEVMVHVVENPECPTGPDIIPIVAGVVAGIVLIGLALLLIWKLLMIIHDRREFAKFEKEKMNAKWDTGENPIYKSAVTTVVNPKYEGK

IC50: 0.26 nM
SMILES: COCCC1(C(=O)N[C@@H](Cc2ccc(NC(=O)c3c(Cl)cccc3Cl)cc2)C(=O)O)CCCC1 [Example 59, 4-[[(2,6-dichlorophenyl)carbonyl]amino]-N-[[1-(2-methoxyethyl)cyclopentyl]carbonyl]-L-phenylalanine]
